Test results: patent US20220184143A1, “COMPOSITIONS AND METHODS OF MODULATING CASOTRANSMITTER SIGNALING” (CASE WESTERN RESERVE UNIVERSITY, priority 2019, published 2022)

What was measured:
AGO2 [1] = target: T1, AGO2 (Homo sapiens, UniProt Q9UKV8); experiment: AGO2 immunoblot following SNO-RAC in HEK293 cells; format: cell-based; design: endogenous in cells; host or cells: HEK293
Method: S-nitrosylated proteins were isolated by SNO-RAC as described. In brief, cells were lysed in HEN buffer additionally containing 1% NP-40, 50 mM NaCl and protease inhibitors. Free cysteines were blocked with S-Methyl methanethiosulfonate (MMTS). After acetone precipitation and multiple 70% acetone washes, proteins were re-suspended in HEN buffer containing 1% SDS. 50 μl thiopropyl Sepharose 6B resin (GE, Chicago, Ill.) and 50 mM sodium ascorbate were added, followed by rotation in the dark for 4 hr at room temperature. Following multiple washes, the bound proteins were eluted in 2×SDS-PAGE loading buffer containing 10% β-mercaptoethanol. Following separation on reducing pre-cast 4-20% SDS-PAGE gels (Bio-Rad Laboratories, Hercules, Calif.), individual SNO-proteins were detected by Western blotting using specific antibodies (anti-FLAG, anti-myc, anti-ALG-1, anti-AGO2, anti-GW182) or the gel was stained using the SilverQuest™ silver staining kit (ThermoFisher Scientific, Waltham, Mass.) or Imperial™ Protein Stain (ThermoFisher Scientific, Waltham, Mass.), per manufacturer instructions.
Transfected HEK293 or HeLa cells were cultured at 37° C. in 15 cm tissue culture-treated dishes. They were then treated with either 500 μM DETA-NOate (t1/2=20 hr) for 16 hours, 100 μM CysNO for 10 min, or 200 μM dipropylenetriamine (DPTA)-NONOate (Cayman Chemicals, Ann Arbor, Mich.) for 6 hours. […]

AGO2 [2] = target: T2, AGO2 (Homo sapiens, UniProt Q9UKV8, C691S); experiment: let-7 luciferase reporter miRNA activity assay in HeLa cells; format: cell-based; settings: C691S AGO2, Hmga2 3'UTR reporter
T2 construct: expressed in transfected cells; host or cells: HeLa
T2 sequence (Q9UKV8 whole entry C691S): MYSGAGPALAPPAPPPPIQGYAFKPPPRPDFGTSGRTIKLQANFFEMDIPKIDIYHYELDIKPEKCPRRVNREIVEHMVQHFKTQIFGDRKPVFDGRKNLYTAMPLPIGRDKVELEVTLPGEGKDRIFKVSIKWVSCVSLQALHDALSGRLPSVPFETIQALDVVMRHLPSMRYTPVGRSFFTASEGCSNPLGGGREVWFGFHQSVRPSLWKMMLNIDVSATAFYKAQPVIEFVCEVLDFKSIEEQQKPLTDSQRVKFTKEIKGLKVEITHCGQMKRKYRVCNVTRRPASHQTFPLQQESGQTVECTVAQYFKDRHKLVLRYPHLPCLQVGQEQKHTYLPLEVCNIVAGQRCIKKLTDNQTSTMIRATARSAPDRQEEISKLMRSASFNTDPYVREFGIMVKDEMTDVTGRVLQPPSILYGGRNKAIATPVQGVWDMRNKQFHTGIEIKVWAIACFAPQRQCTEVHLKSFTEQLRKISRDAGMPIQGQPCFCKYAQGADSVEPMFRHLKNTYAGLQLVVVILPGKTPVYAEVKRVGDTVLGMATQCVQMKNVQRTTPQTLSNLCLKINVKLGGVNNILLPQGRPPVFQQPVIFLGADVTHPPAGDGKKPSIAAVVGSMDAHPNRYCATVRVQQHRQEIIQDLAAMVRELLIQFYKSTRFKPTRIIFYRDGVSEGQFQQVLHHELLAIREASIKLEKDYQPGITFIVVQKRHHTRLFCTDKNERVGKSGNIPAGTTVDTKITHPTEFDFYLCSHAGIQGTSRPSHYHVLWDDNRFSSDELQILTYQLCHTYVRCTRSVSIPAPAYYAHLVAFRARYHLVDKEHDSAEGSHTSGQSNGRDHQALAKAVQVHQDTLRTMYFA
Method: (§1) 0.5×10^5 cells/well Hela cells were plated in wells of 24 well dishes. They were transiently transfected the next day with 2 μg of either WT-AGO2 or C691S-AGO2, plus 100 ng of either Hmga2 3′UTR-WT luciferase (Luc-wt) or Hmga2 3′UTR-mutant7 luciferase (Luc-m7) control. 100 ng pMax-GFP was also co-transfected to normalize for transfection efficiency. Transfections were carried out using Lipofectamine® 2000 transfection reagent (ThermoFisher Scientific, Waltham, Mass.). Six hours after transfection, the NO donor DETA-NONOate (Cayman Chemicals, Ann Arbor, Mich.) was added at 500 μM. The cells were harvested 24 hours post-transfection, using 1× Passive Lysis Buffer (Promega, Madison, Wis.). Renilla luciferase activity was measuredusing the Renilla Luciferase Assay System (Promega, Madison, Wis.) and a Veritas™ microplate luminometer (Turner BioSystems, Sunnyvale, Calif.) and normalized to GFP readings measured using a BMG FluoStar Galaxy microplate reader. Hmga2 3′UTR WT luciferase (Luc-wt) and Hmga2 3′UTR m7 luciferase (Luc-m7) were gifts from David Bartel (Addgene plasmid #14785 and #14788, respectively)).

AGO2 and GW182 = target: T3, AGO2 and GW182 (Homo sapiens, UniProt Q9UKV8); experiment: Co-immunoprecipitation of AGO2 and GW182 in HEK293 cells; format: cell-based
T3 construct: host or cells: HEK293
T3 sequence (Q9UKV8 whole entry): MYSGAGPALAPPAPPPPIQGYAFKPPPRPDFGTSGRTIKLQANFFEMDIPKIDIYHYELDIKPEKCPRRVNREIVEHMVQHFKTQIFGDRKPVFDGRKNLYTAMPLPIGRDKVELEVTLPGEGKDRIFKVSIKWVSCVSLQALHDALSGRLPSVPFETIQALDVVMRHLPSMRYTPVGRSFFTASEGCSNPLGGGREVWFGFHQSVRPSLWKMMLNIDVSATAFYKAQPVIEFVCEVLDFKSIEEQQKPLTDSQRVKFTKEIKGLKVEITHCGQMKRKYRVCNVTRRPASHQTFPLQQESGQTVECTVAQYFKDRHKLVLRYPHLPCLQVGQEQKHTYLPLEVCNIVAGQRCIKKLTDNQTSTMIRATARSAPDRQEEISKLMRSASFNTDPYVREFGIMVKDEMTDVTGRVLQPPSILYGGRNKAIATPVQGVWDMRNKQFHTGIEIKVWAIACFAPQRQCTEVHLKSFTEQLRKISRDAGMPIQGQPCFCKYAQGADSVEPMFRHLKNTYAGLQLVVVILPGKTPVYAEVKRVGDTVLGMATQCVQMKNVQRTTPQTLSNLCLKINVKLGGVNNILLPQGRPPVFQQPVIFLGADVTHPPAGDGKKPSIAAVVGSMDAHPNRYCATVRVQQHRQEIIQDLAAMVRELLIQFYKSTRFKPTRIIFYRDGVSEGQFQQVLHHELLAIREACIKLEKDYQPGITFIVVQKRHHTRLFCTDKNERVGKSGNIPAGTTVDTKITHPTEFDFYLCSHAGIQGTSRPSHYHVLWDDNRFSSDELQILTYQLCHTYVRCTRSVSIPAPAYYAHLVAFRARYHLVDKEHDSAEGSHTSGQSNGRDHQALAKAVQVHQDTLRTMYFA
Method: Transfected HEK293 or HeLa cells were cultured at 37° C. in 15 cm tissue culture-treated dishes. They were then treated with either 500 μM DETA-NOate (t1/2=20 hr) for 16 hours, 100 μM CysNO for 10 min, or 200 μM dipropylenetriamine (DPTA)-NONOate (Cayman Chemicals, Ann Arbor, Mich.) for 6 hours. Cells were washed once with DPBS without calcium chloride and magnesium chloride from Gibco® (Life Technologies, Carlsbad, Calif.) and incubated on ice for 10 minutes in IP lysis/wash buffer (ThermoFisher Scientific, Waltham, Mass.) with added EDTA-free protease inhibitor tablet (Roche, Basel, Switzerland). This was followed by centrifugation at 14,000 g for 10 minutes to collect the supernatant. The lysates were then used for immunoprecipitation experiments.
For HEK293 cells, all steps were performed either on ice or in the cold room at 4° C. Immunoprecipitations (IP) were performed with 3 mg of total lysate that was pre-cleared using a Pierce™ control agarose resin (ThermoFisher Scientific, Waltham, Mass.), after which 10 μg of IP antibody was added, and samples were incubated overnight at 4° C. with rotation. The next day, 30 μl of protein A/G Sepharose (ThermoFisher Scientific, Waltham, Mass.) was added and the samples were incubated for 2 hours at 4° C. […] The eluates were neutralized by adding 3 μl of 1M Tris-HCl, pH 8.0 and analyzed by western blotting. […]

[3] = cited from earlier work
AGO2 [4] = target: T1, AGO2; experiment: let-7 luciferase reporter miRNA activity assay in HeLa cells; format: cell-based; design: expressed in transfected cells; host or cells: HeLa; settings: WT AGO2, Hmga2 3'UTR reporter
Method: as §1

T1 sequence (Q9UKV8 whole entry): as above

N[C@@H](CSN=O)C(=O)O [CysNO, S-nitrosocysteine]
S-nitrosylation of WT AGO2 (AGO2 [1]; HEK293 cells transfected with WT AGO2, 100 μM): strongly S-nitrosylated

NCCN(CCN)/[N+]([O-])=N/O [DETA-NO, DETA-NONOate]
mutant C691S AGO2 activity (AGO2 [2]): little effect | association of WT AGO2 with GW182 (AGO2 and GW182; co-immunoprecipitation, transfected HEK293 cells): strongly inhibited | interaction between endogenous AGO2 and GW182 (AGO2 and GW182; cultured mammalian cells): inhibited | S-nitrosylation of AGO2 by endogenous eNOS (AGO2 [1]; HEK293 cells, 500 μM): enhanced | t1/2 [3]: 20 h | WT AGO2 repression of luciferase target (AGO2 [4]): repressed its target poorly
